Reference: patent publication EP4603105A1, “PHARMACEUTICAL COMPOSITION CONTAINING CYCLIC COMPOUND HAVING SELECTIVE KRAS INHIBITORY EFFECT AGAINST HRAS AND NRAS” (CHUGAI SEIYAKU KABUSHIKI KAISHA, priority 2022, dated 2024)

Tests used:
HRAS wild-type protein = HRAS wild-type protein (Homo sapiens, UniProt P01112); experiment: Binding to HRAS by surface plasmon resonance (SPR), KD and KD ratio to KRAS
In short: (§1)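 Recombinant RAS proteins bearing a biotinylated Avi tag and loaded with GDP served as the captured ligand, recaptured fresh every cycle. Binding responses were referenced to an uncoated surface and a buffer-only blank cycle. Dissociation constants were obtained by 1:1 model fitting at 30°C.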

[1] = biological target: GDP-bound NRAS wild-type protein (Homo sapiens, UniProt P01111); experiment: Binding to NRAS by surface plasmon resonance (SPR), KD and KD ratio to KRAS
In short: as §1

[2] = biological target: GDP-bound KRAS wild-type protein (Homo sapiens, UniProt P01116); experiment: Binding to KRAS by surface plasmon resonance (SPR), dissociation constant KD
In short: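 Compound binding is evaluated by SPR single-cycle kinetics, with concentrations added intermittently from low to high for 75 s each. Target surfaces carry GDP-loaded biotinylated Avi-RAS at about 100–300 RU, regenerated after each cycle; temperature 30°C. A 1:1 binding model gives KD.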

[3] = test system: human lung cancer strain NCI-H441; type: cell-based
In short: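 Signal came from […] measured per well once the reagent was added. Beforehand, cells were cultured at 37°C and 5% carbon dioxide on a compound series serially diluted in dimethyl sulfoxide.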

[4] = ratio of KD for HRAS wild-type protein to KD for KRAS
[5] = ratio of KD for GDP-bound NRAS wild-type protein to KD for KRAS
[6] = ratio of the KD value with respect to HRAS wild-type protein to the KD value with respect to KRAS
[7] = ratio of the KD value with respect to GDP-bound NRAS wild-type protein to the KD value with respect to KRAS
[8] = Single Cycle Kinetics, 1:1 binding model
[9] = ratio of KD value for HRAS wild-type protein to KD value for KRAS (SPR)
[10] = ratio of KD value for GDP-bound NRAS wild-type protein to KD value for KRAS (SPR)

GDP-bound NRAS wild-type protein, sequence (P01111 whole entry): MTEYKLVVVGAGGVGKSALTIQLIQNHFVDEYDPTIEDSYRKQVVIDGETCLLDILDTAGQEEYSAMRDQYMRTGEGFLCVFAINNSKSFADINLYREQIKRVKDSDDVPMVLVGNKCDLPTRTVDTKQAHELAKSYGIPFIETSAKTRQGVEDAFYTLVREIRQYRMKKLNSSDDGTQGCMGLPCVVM
HRAS wild-type protein, sequence (P01112 whole entry): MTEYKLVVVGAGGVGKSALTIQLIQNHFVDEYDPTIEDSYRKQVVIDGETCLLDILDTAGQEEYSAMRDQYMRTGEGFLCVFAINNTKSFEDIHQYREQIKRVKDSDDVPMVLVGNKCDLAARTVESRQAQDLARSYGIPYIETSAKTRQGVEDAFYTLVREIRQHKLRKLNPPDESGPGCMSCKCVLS
GDP-bound KRAS wild-type protein, sequence (P01116 1-188 isoform P01116-2): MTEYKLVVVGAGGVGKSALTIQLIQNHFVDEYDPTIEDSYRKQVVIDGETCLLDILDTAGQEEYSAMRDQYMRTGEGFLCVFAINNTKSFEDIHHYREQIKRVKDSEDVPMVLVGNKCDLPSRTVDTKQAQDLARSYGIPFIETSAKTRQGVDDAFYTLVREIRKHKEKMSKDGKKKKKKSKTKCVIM

SMILES | Kd ([2]; Single Cycle Kinetics) | IC50 [3] | Kd [2, 8] | Kd ([2]; 1:1 binding model) | HRAS /KRAS (HRAS wild-type protein; [4]) | NRAS /KRAS [1, 5] | HRAS /KRAS (HRAS wild-type protein; [6]) | NRAS /KRAS [1, 7] | HRAS /KRAS (HRAS wild-type protein; [9]) | NRAS /KRAS [1, 10]
CCO[C@@H]1CCN2C(=O)[C@H](CCc3cc(F)c(C(F)(F)F)c(F)c3)NC(=O)CN(C)C(=O)[C@H](Cc3ccc(C(F)(F)F)cc3)N3CCCCC[C@@H](C3=O)N(C)C(=O)CN(C)C(=O)[C@H]([C@@H](C)CC)NC(=O)[C@H](CC(C)C)N(C)C(=O)C[C@@H](C(=O)N3CCOCC3)N(C)C(=O)[C@H](C3CCCC3)N(C)C(=O)C3(CCC3)NC(=O)[C@H]12 [PP1082] | 3.5 nM | 300 nM | – | – | B (a compound having 3 or more and less than 10 is denoted as B) | A (a compound having 10 or more and less than 20 is denoted as A) | – | – | – | –
CCO[C@@H]1C[C@H]2C(=O)NC3(CCC3)C(=O)N(C)[C@@H](C3CCCC3)C(=O)N(CCC3CCCC3)[C@H](C(=O)N3CCOCC3)CC(=O)N(C)[C@@H](CC(C)C)C(=O)N[C@@H]([C@@H](C)CC)C(=O)N(C)CC(=O)N(C)[C@H]3CCCCCN(C3=O)[C@@H](Cc3ccc(C(F)(F)F)cc3)C(=O)N(C)CC(=O)N[C@@H](CCc3cc(F)c(C(F)(F)F)c(F)c3)C(=O)N2C1 [PP0641] | – | > 1300 nM | 26 nM | – | – | – | A (a compound having 10 or more and less than 20 is denoted as A) | A (a compound having 10 or more and less than 20 is denoted as A) | – | –
CCC[C@H]1C(=O)N[C@@H]([C@@H](C)CC)C(=O)N(C)CC(=O)N(C)[C@H]2C/C=C\CCN(C2=O)[C@@H](Cc2ccc(C)cc2)C(=O)N(C)CC(=O)N[C@@H](CCc2ccc3c(C)c(C)n(C)c3c2)C(=O)N2C[C@H](OCC)C[C@H]2C(=O)NC2(CC(C)(C)C2)C(=O)N(C)[C@@H](C(CC)CC)C(=O)N(C)[C@H](C(=O)N(C)C)CC(=O)N1C [PP2906] | – | 99.3 nM | – | 5.5 nM | A (a compound having 10 or more and less than 20 is denoted as A) | A (a compound having 10 or more and less than 20 is denoted as A) | – | – | – | –
CC[C@H](C)[C@@H]1NC(=O)[C@H](CC(C)C)N(C)C(=O)C[C@@H](C(=O)N(C)C)N(C)C(=O)[C@H](C2CCCC2)N(C)C(=O)C2(CCCC2)NC(=O)[C@@H]2CCCN2C(=O)[C@H](CCc2ccc(C(F)(F)F)c(Cl)c2)NC(=O)CN(C)C(=O)[C@H](Cc2ccc(C)cc2)N2CC=CCOC[C@H](C2=O)N(C)C(=O)CN(C)C1=O [PP0629] | – | 45.1 nM | 2.4 nM | – | – | – | C (A compound having a KD ratio of 0.1 or more and less than 3 is denoted as C) | B (a compound having 3 or more and less than 10 is denoted as B) | – | –
CCO[C@@H]1C[C@H]2C(=O)NC3(CC(C)(C)C3)C(=O)N(C)[C@@H](C3CCCC3)C(=O)N(C)[C@H](C(=O)N(C)C)CC(=O)N(C)[C@@H]([C@H](C)OC)C(=O)N[C@@H]([C@@H](C)CC)C(=O)N3CCC[C@H]3C(=O)N(C)[C@H]3C/C=C\CCN(C3=O)[C@@H](Cc3ccc(C)cc3)C(=O)N(C)CC(=O)N[C@@H](CCc3ccc(C(F)(F)F)c(OC)c3)C(=O)N2C1 [PP3197] | – | 130 nM | – | 1.4 nM | A (a compound having 10 or more and less than 20 is denoted as A) | A (a compound having 10 or more and less than 20 is denoted as A) | – | – | – | –
CCC[C@H]1C(=O)N[C@@H]([C@@H](C)CC)C(=O)N(C)CC(=O)N(C)[C@H]2C/C=C\CCN(C2=O)[C@@H](Cc2ccc(C)cc2)C(=O)N(C)CC(=O)N[C@@H](CCc2ccc3ccn(C)c3c2)C(=O)N2C[C@H](OCC)C[C@H]2C(=O)NC2(CC(C)(C)C2)C(=O)N(C)[C@@H](C(CC)CC)C(=O)N(C)[C@H](C(=O)N(C)C)CC(=O)N1C [PP2914] | – | 311 nM | – | 14 nM | A (a compound having 10 or more and less than 20 is denoted as A) | AA (a compound having 20 or more is denoted as AA) | – | – | – | –

Now those with a lower IC50 [3], led by results:

Kd ([2]; Single Cycle Kinetics) | IC50 [3] | Kd [2, 8] | Kd ([2]; 1:1 binding model) | SMILES | HRAS /KRAS (HRAS wild-type protein; [4]) | NRAS /KRAS [1, 5] | HRAS /KRAS (HRAS wild-type protein; [6]) | NRAS /KRAS [1, 7] | HRAS /KRAS (HRAS wild-type protein; [9]) | NRAS /KRAS [1, 10]
– | 22.2 nM | 0.12 nM | – | CCC[C@H]1C(=O)N[C@@H]([C@@H](C)CC)C(=O)N(C)CC(=O)N(C)[C@H]2C/C=C\CCN(C2=O)[C@@H](Cc2ccc(C)cc2)C(=O)N(C)CC(=O)N[C@@H](CCc2cc(F)c(C(F)(F)F)c(F)c2)C(=O)N2C[C@H](C)C[C@H]2C(=O)NC2(CCC2)C(=O)N(C)[C@@H](C2CCCC2)C(=O)N(C)[C@H](C(=O)N(C)CC)CC(=O)N1C [PP1862] | – | – | – | – | A (a compound having 10 or more and less than 20 is denoted as A) | A (a compound having 10 or more and less than 20 is denoted as A)
– | 29.9 nM | – | 0.87 nM | CCO[C@@H]1C[C@H]2C(=O)NC3(CC(C)(C)C3)C(=O)N(C)[C@@H](C3CCCC3)C(=O)N(C)[C@H](C(=O)N(C)CC)CC(=O)N(C)[C@@H]([C@@H](C)OC)C(=O)N[C@@H]([C@@H](C)CC)C(=O)N3CCC[C@H]3C(=O)N(C)[C@H]3C/C=C\CCN(C3=O)[C@@H](Cc3ccc(C)cc3)C(=O)N(C)CC(=O)N[C@@H](CCc3cc(F)c(C(F)(F)F)c(F)c3)C(=O)N2C1 [PP3190] | B (a compound having 3 or more and less than 10 is denoted as B) | A (a compound having 10 or more and less than 20 is denoted as A) | – | – | – | –
0.017 nM | 6.8 nM | – | – | CCO[C@@H]1C[C@H]2C(=O)NC3(CCC3)C(=O)N(C)[C@@H](C3CCCC3)C(=O)N(C)[C@H](C(=O)N(C)C)CC(=O)N(C)[C@@H](CC(C)C)C(=O)N[C@@H]([C@@H](C)CC)C(=O)N(C)CC(=O)N(C)[C@H]3C[C@@H](C)CCN(C3=O)[C@@H](Cc3ccc(C(F)(F)F)cc3)C(=O)N(C)CC(=O)N[C@@H](CCc3cc(F)c(C(F)(F)F)c(F)c3)C(=O)N2C1 [PP1018] | B (a compound having 3 or more and less than 10 is denoted as B) | C (A compound having a KD ratio of 0.1 or more and less than 3 is denoted as C) | – | – | – | –
– | 19.4 nM | – | 0.33 nM | CCO[C@@H]1C[C@H]2C(=O)NC3(CC(C)(C)C3)C(=O)N(C)[C@@H](C3CCCC3)C(=O)N(C)[C@H](C(=O)N(C)C)CC(=O)N(C)[C@@H]([C@@H](C)OC)C(=O)N[C@@H]([C@@H](C)CC)C(=O)N(C3CC3)CC(=O)N(C)[C@H]3C/C=C\CCN(C3=O)[C@@H](Cc3ccc(C)cc3)C(=O)N(C)CC(=O)N[C@@H](CCc3cc(F)c(C(F)(F)F)c(F)c3)C(=O)N2C1 [PP3211] | A (a compound having 10 or more and less than 20 is denoted as A) | A (a compound having 10 or more and less than 20 is denoted as A) | – | – | – | –
– | 5.3 nM | 0.1 nM | – | CC[C@H](C)[C@@H]1NC(=O)[C@H](CC(C)C)N(C)C(=O)C[C@@H](C(=O)N(C)C)N(C)C(=O)[C@H](C2CCCC2)N(C)C(=O)C2(CC(C)(C)C2)NC(=O)[C@@H]2C[C@@H](C)CN2C(=O)[C@H](CCc2cc(F)c(C(F)(F)F)c(F)c2)NC(=O)CN(C)C(=O)[C@H](Cc2ccc(C)cc2)N2CC/C=C\C[C@@H](C2=O)N(C)C(=O)CN(C)C1=O [PP2223] | – | – | A (a compound having 10 or more and less than 20 is denoted as A) | A (a compound having 10 or more and less than 20 is denoted as A) | – | –
– | 13 nM | 0.21 nM | – | CC[C@H](C)[C@@H]1NC(=O)[C@H](CC2CC2)N(C)C(=O)C[C@@H](C(=O)N(C)C)N(C)C(=O)[C@H](C2CCCC2)N(C)C(=O)C2(CCC2)N(C)C(=O)[C@@H]2C[C@@H](C)CN2C(=O)[C@H](CCc2cc(F)c(C(F)(F)F)c(F)c2)NC(=O)CN(C)C(=O)[C@H](Cc2ccc(C)cc2)N2CC/C=C\C[C@@H](C2=O)N(C)C(=O)[C@@H]2CCCN2C1=O [PP1801] | – | – | – | – | B (a compound having 3 or more and less than 10 is denoted as B) | A (a compound having 10 or more and less than 20 is denoted as A)
– | 25.4 nM | 0.79 nM | – | CCO[C@@H]1C[C@H]2C(=O)NC3(CC(C)(C)C3)C(=O)N(C)[C@@H](C(CC)CC)C(=O)N(C)[C@H](C(=O)N(C)C)CC(=O)N(C)[C@@H](C(C)C)C(=O)N[C@@H]([C@@H](C)CC)C(=O)N(C)CC(=O)N(C)[C@H]3C/C=C\CCN(C3=O)[C@@H](Cc3ccc(C)cc3)C(=O)N(C)CC(=O)N[C@@H](CCc3ccc(C(F)(F)F)c(Cl)c3)C(=O)N2C1 [PP2158] | – | – | A (a compound having 10 or more and less than 20 is denoted as A) | AA (a compound having 20 or more is denoted as AA) | – | –
– | 29.2 nM | – | 0.4 nM | CCO[C@@H]1C[C@H]2C(=O)NC3(CC(C)(C)C3)C(=O)N(C)[C@@H](C3CCCC3)C(=O)N(C)[C@H](C(=O)N(C)C)CC(=O)N(C)[C@@H]([C@@H](C)OC)C(=O)N[C@@H]([C@@H](C)CC)C(=O)N3CCC[C@H]3C(=O)N(C)[C@H]3C/C=C\CCN(C3=O)[C@@H](Cc3ccc(C(F)(F)F)cc3)C(=O)N(C)CC(=O)N[C@@H](CCc3ccc(C(F)(F)F)c(OC)c3)C(=O)N2C1 [PP3204] | A (a compound having 10 or more and less than 20 is denoted as A) | A (a compound having 10 or more and less than 20 is denoted as A) | – | – | – | –
– | 39.8 nM | – | 3 nM | CCC[C@H]1C(=O)N[C@@H]([C@@H](C)CC)C(=O)N(C)CC(=O)N(C)[C@H]2C/C=C\CCN(C2=O)[C@@H](Cc2ccc(C)cc2)C(=O)N(C)CC(=O)N[C@@H](CCc2ccc3c(C)cn(C)c3c2)C(=O)N2C[C@H](OCC)C[C@H]2C(=O)NC2(CC(C)(C)C2)C(=O)N(C)[C@@H](C(CC)CC)C(=O)N(C)[C@H](C(=O)N(C)C)CC(=O)N1C [PP2910] | A (a compound having 10 or more and less than 20 is denoted as A) | AA (a compound having 20 or more is denoted as AA) | – | – | – | –
